From US20040009189A1, “Antimutagenic effects of ganoderma lucidum spores” (priority 2002, published 2004)
Where two headings read alike, the source gives them in different places. Marks after values point to notes of the source that are not given here.

How the values were obtained:
fetal rats [1] = assay: Effects on early embryo development in pregnant rats; format: in vivo; conditions: aspirin 250 mg/kg oral, days 10-12 of pregnancy; 14 pregnant rats
Text: (§1) To test the embryotoxicity and teratogenic effects of GASP, a rat model was used.
(§2) Healthy SD rats weighing between 200-250 g were selected and housed together overnight at a 2:1 ratio of females to males. Beginning on the next day, vaginal smears were examined each morning, and the date when sperm was found was considered day 0 of pregnancy.
(§3) The pregnant rats were randomly divided into 5 groups, 18 rats per group. […] The human clinical dose was four capsules per dose (each capsule containing 0.3 g of the GSAP), four times daily. The study was designed so that the low dose group was 428.6 mg/kg, medium dose group was 2143 mg/kg, and the high dose group was 4286 mg/kg (equivalent to 1, 5, and 10 times the human clinical dose, respectively, when calculated according to the respective body surface areas of the rat and human). During the 6-15 days of the pregnancy, the GASP was orally administered to the rats in the dosage groups at a volume of 1.5 ml/100 g through gavage. The positive control group was given aspirin (250 mg/kg) on days 10-12 of the pregnancy, at the volume of 1.0 ml/100 g orally by means of a stomach tube, while the negative control group was given the equivalent amount of distilled water orally through gavage.
All the pregnant rats were weighed once every 3 days, so as to adjust the dosage. On the day 20 of the pregnancy, the animals were sacrificed by dislocating the vertebra, and a cesarean was performed to obtain the fetal rats in order to check various indexes and for statistical analysis.

[2] = Weight gain of the pregnant rats (embryotoxicity/teratogenicity study); format: in vivo; conditions: days 10-12 of pregnancy
Text: as §1, §2, §3
All the pregnant rats were weighed once every 3 days, so as to adjust the dosage. […]

fetal rats [3] = assay: Effects on fetal rat organogenesis (Bouins fixation, sectioning); parameters: species or system Sprague Dawley (SD) rats; conditions: female, Sprague-Dawley, in vivo
Text: Approximately ⅓ of the fetal rats were removed per litter, fixed with Bouins solution and then manually sectioned, with the various internal organs being then observed under the dissecting microscope.

[4] = test system: mice bone marrow cell chromosomal aberration induced by cyclophosphamide; conditions: 500 cells
Text: The test used was the modified mice bone marrow cell micronucleus test as specified in “A Notice Concerning Issuance of the Revised Items of the ‘Health Food Functional Assessment Procedures and Testing Methods’,” a document from the Ministry of Public Health of the People's Republic of China, which is hereby incorporated by reference.
The mice were randomly divided by weight into 9 groups, 5 males and 5 females respectively per group. Animals in each group were given the following treatment:
The drug was prepared as a suspension of the required concentration in distilled water, and administered orally through tube at individual dosages of 0.2 mL/10 g of body weight. The negative control group was given distilled water of the equivalent volume through tube once a day for 30 days continuously. […] 4 hours before the mice were sacrificed they are given colchicine, and the bone marrow was extracted in order to prepare the chromosome samples in the routine way.
Samples from each group were observed. One hundred (100) metaphase cells per mouse were observed, and the chromosomal structures and the numbers of aberrations were recorded. Using SPSS for Windows 8.0 (t-test), a comparative analysis was made of the experimental data from the various dosage groups and the positive groups and tested to find out if there was any significant difference between the males and females within the group.

[5] = test system: bone marrow cells of mice
Protocol: Male NIH mice weighing 22-25 g, provided by the Guangdong Provincial Animal Center for Medical Experiments, were used. […] Each group contained 5 mice. Dosages were administered once a day for 3 consecutive days, orally via gavage.
Distilled water was then added to adjust the suspension to the required concentration. The compound was orally administered through gavage at 0.4 ml/10 g of body weight. […] Twenty four (24) hours after the last administration the animals were sacrificed by dislocation of the cervical vertebra. The femur was then removed, the muscle stripped away, and the bone marrow flushed out using phosphate buffer, centrifuged, fixed hyponotically and the chromosome sample is prepared using methods routine in the art. It was then stained for 10 min using 10% Giemsa's stain (pH 6.8).
Well dispersed Metaphase cells were selected for observation under the oil immersion lens. One hundred (100) metaphase cells were observed per animal, the number of cells with chromosomal aberrations noted, and the chromosomal aberration rate calculated. The data obtained were analyzed statistically calculated using SPSS for Windows 8.0 (t-test).

[6] = CP 40 mg/kg alone (positive group), F
[7] = CP 40 mg/kg alone (positive group), M
[8] = CP 50 mg/kg alone (positive group 4), F
[9] = CP 50 mg/kg alone (positive group 4), M
[10] = positive control: cyclophosphamide 40 mg/kg oral, single administration, 500 cells counted

## CC(=O)Oc1ccccc1C(=O)O [Aspirin, aspirin]
Fetal rats [1]
  Mean no. survivors per litter: 4.0*
  No. of litters with dead fetuses: 5
  No. surviving fetus: 56
[2]; aspirin 250 mg/kg oral
  Net Weight Gain: 47.8 ± 13.9 g
[2]; aspirin 250 mg/kg, p<0.05
  Net weight gain vs negative control group: significantly lower than that of the negative control group
Fetal rats [3]
  Number of hydrocephalic fetal rats: 2

## O=P1(N(CCCl)CCCl)NCCCO1 (stereo not shown) [CP, cyclophosphamide]
[4]; [6]
  Abberant Cell Count: 118
  Abnormality Rate: 1.2
  Cell Aberration Rate %: 23.6%
  No. of Abnormalities Polyploid: 5
  No. of Abnormalities hyperploid: 1
  No. of Abormal Cells: 6
  crb (chromatid break): 95
  csb (chromosome break): 28
  csg (chromosome gap): 0
  ctg (chromatid gap): 16
  del (nullisomic): 50
  dmin (dimicrobody): 0
  f (fragment): 60
  r (ring chromosome): 0
  tr (triradial): 21
[4]; [7]
  Abberant Cell Count: 108
  Abnormality Rate: 1.8
  Cell Aberration Rate %: 21.6%
  No. of Abnormalities Polyploid: 6
  No. of Abnormalities hyperploid: 1
  No. of Abormal Cells: 9
  crb (chromatid break): 94
  csb (chromosome break): 19
  csg (chromosome gap): 0
  ctg (chromatid gap): 18
  del (nullisomic): 47
  dmin (dimicrobody): 0
  f (fragment): 62
  r (ring chromosome): 0
  tr (triradial): 15
[4]; [8]
  Abberant Cell Count: 221
  Abnormality Rate: 2.0
  No. of Abnormalities Polyploid: 5
  No. of Abnormalities hyperploid: 5
  No. of Abormal Cells: 10
  crb (chromatid break): 185
  csb (chromosome break): 21
  csg (chromosome gap): 0
  ctg (chromatid gap): 18
  del (nullisomic): 103
  dmin (dimicrobody): 0
  f (fragment): 117
  r (ring chromosome): 0
  tr (triradial): 32
[4]; [9]
  Abberant Cell Count: 198
  Abnormality Rate: 2.2
  No. of Abnormalities Polyploid: 9
  No. of Abnormalities hyperploid: 2
  No. of Abormal Cells: 11
  crb (chromatid break): 170
  csb (chromosome break): 33
  csg (chromosome gap): 0
  ctg (chromatid gap): 18
  del (nullisomic): 92
  dmin (dimicrobody): 0
  f (fragment): 100
  r (ring chromosome): 1
  tr (triradial): 29
[5]; CP 40 mg/kg, p<0.01
  Chromosomal aberration rate vs negative control group: noticeably higher than that of the negative control group
[5]; [10]
  Chromosomal Aberration Rate (%): 25.0* %
  No. aberrant cells: 115
  Type and Number of Aberration: I (chromosomal fragmentation): 35
  Type and Number of Aberration: b (chromosomal breakage): b(48)
  Type and Number of Aberration: f (chromosal fusion): 59
